According to ChEMBL document CHEMBL3769315 (J Med Chem, 2016):

How the values were obtained:
[1] = Cytotoxicity against human Huh7.5.1 cells assessed as ATP level by luminescence analysis; settings: huh-7
Hepatitis C virus = assay: microbe, parasite or virus in culture; assay type: functional, organism-based, Hepacivirus hominis; settings: JFH-1, Huh-7.5.1, 48 h
[2] = Selectivity index, ratio of CC50 for human Huh7.5.1 cells infected with HCV JFH-1 virus to EC50 for HCV JFH-1 virus

For `c1ccc(C(c2ccccc2)c2ccncc2)cc1`, the CC50 [1] was 65.1 µM, the EC50 (Hepatitis C virus) was over 31.6 µM and the selectivity ratio [2] was under 2.
Compound `Clc1ccc(C(c2ccc(Cl)cc2)N2CCCCC2)cc1` has a CC50 [1] of 69 µM, an EC50 (Hepatitis C virus) of 17.4 µM and a selectivity ratio [2] of 4.
`CCCCN1CCN([C@H](c2ccccc2)c2ccc(Cl)cc2)CC1` showed a CC50 [1] of 40.8 µM, an EC50 (Hepatitis C virus) of 0.195 µM and a selectivity ratio [2] of 209.
In the case of `CN1CCN([C@H](c2ccccc2)c2ccc(Cl)cc2)CC1`, the CC50 [1] is reported as 37.5 µM and the EC50 (Hepatitis C virus) is reported as 0.02 µM.
Compound `CC(C)CN1CCN([C@H](c2ccccc2)c2ccc(Cl)cc2)CC1` has a CC50 [1] of 58.2 µM, an EC50 (Hepatitis C virus) of 0.232 µM and a selectivity ratio [2] of 251.
Compound `FC(F)(F)CN1CCN([C@@H](c2ccccc2)c2ccc(Cl)cc2)CC1` has a CC50 [1] of over 100 µM and an EC50 (Hepatitis C virus) of over 31.6 µM.
With `CN1CCC(N(c2ccccc2)c2ccccc2)CC1` the CC50 [1] was 56.8 µM, the EC50 (Hepatitis C virus) was 2.72 µM and the selectivity ratio [2] was 21.
Compound `CCCN1CCN([C@@H](c2ccccc2)c2ccc(Cl)cc2)CC1` has a CC50 [1] of 39.7 µM, an EC50 (Hepatitis C virus) of 0.032 µM and a selectivity ratio [2] of 1240.
`c1ccc(C(c2ccccc2)C2CCNCC2)cc1` gave a CC50 [1] of 32.5 µM, an EC50 (Hepatitis C virus) of 0.072 µM and a selectivity ratio [2] of 451.
Work on `CCCN1CCN([C@H](c2ccccc2)c2ccc(Cl)cc2)CC1` yielded a CC50 [1] of 48.5 µM, an EC50 (Hepatitis C virus) of 0.024 µM and a selectivity ratio [2] of 2020.
`[2H]C([2H])([2H])N1CCN([C@H](c2ccccc2)c2ccc(Cl)cc2)CC1` gave a CC50 [1] of 46.7 µM and an EC50 (Hepatitis C virus) of 0.04 µM.
For `FC(F)(F)CN1CCN([C@H](c2ccccc2)c2ccc(Cl)cc2)CC1`, the EC50 (Hepatitis C virus) was over 31.6 µM.
For `Clc1ccc([C@H](c2ccccc2)N2CCN(C3CCCC3)CC2)cc1`, the CC50 [1] was 30.4 µM, the EC50 (Hepatitis C virus) was 0.019 µM and the selectivity ratio [2] was 1600.
`CC(=O)N1CCN([C@@H](c2ccccc2)c2ccc(Cl)cc2)CC1` showed a CC50 [1] of 91.3 µM, an EC50 (Hepatitis C virus) of 22 µM and a selectivity ratio [2] of 4.
`Clc1ccc([C@H](c2ccccc2)N2CCN(C3CCCCC3)CC2)cc1` showed a CC50 [1] of 12.3 µM, an EC50 (Hepatitis C virus) of 0.177 µM and a selectivity ratio [2] of 69.
For `CN1CCC(N(c2ccccc2)c2ccc(OC(C)(C)C)cc2)CC1`, the CC50 [1] was 78.7 µM, the EC50 (Hepatitis C virus) was 0.354 µM and the selectivity ratio [2] was 222.
In the case of `CCCCN1CCN([C@@H](c2ccccc2)c2ccc(Cl)cc2)CC1`, the CC50 [1] is reported as 31.1 µM, the EC50 (Hepatitis C virus) is reported as 0.042 µM and the selectivity ratio [2] is reported as 740.
In the case of `[2H]C([2H])([2H])N1CCN([C@@H](c2ccccc2)c2ccc(Cl)cc2)CC1`, the CC50 [1] is reported as 77.9 µM and the EC50 (Hepatitis C virus) is reported as 0.063 µM.
With `CCN1CCN(C2c3ccccc3-c3ccc(Br)cc32)CC1` (configuration not stated) the CC50 [1] was 53.1 µM, the EC50 (Hepatitis C virus) was 1.68 µM and the selectivity ratio [2] was 32.
`CC(C)N1CCN([C@@H](c2ccccc2)c2ccc(Cl)cc2)CC1` gave a CC50 [1] of 32.4 µM, an EC50 (Hepatitis C virus) of 0.013 µM and a selectivity ratio [2] of 2490.
`[2H]C([2H])([2H])CN1CCN([C@@H](c2ccccc2)c2ccc(Cl)cc2)CC1` showed a CC50 [1] of 71.3 µM.
In the case of `COc1ccc(CN2CCN([C@@H](c3ccccc3)c3ccc(Cl)cc3)CC2)c(OC)c1`, the CC50 [1] is reported as 38.4 µM, the EC50 (Hepatitis C virus) is reported as 0.456 µM and the selectivity ratio [2] is reported as 84.
`Clc1ccc([C@@H](c2ccccc2)N2CCNCC2)cc1` gave a CC50 [1] of 12.5 µM, an EC50 (Hepatitis C virus) of 0.032 µM and a selectivity ratio [2] of 391.
With `Clc1ccc(C(c2ccc(Cl)cc2)N2CCOCC2)cc1` the CC50 [1] was 62.1 µM, the EC50 (Hepatitis C virus) was 29.7 µM and the selectivity ratio [2] was 2.
Compound `CC(C)CN1CCN([C@@H](c2ccccc2)c2ccc(Cl)cc2)CC1` has a CC50 [1] of 51.7 µM, an EC50 (Hepatitis C virus) of 0.102 µM and a selectivity ratio [2] of 507.
With `NC(=O)COCCN1CCN(C(c2ccccc2)c2ccc(Cl)cc2)CC1` (racemic) the CC50 [1] was over 100 µM, the EC50 (Hepatitis C virus) was 0.103 µM and the selectivity ratio [2] was over 910.
Compound `O=C1c2ccccc2C(=O)N1CCOCCN1CCN(C(c2ccccc2)c2ccc(Cl)cc2)CC1` (racemic) has a CC50 [1] of over 100 µM, an EC50 (Hepatitis C virus) of 1.54 µM and a selectivity ratio [2] of over 65.
`CC(C)(C)OC(=O)NCCOCCOCCOCCOCCN1CCN(C(c2ccccc2)c2ccc(Cl)cc2)CC1` (racemic) gave a CC50 [1] of 19 µM, an EC50 (Hepatitis C virus) of 0.199 µM and a selectivity ratio [2] of 95.
Work on `O=C(O)COCCN1CCN(C(c2ccccc2)c2ccc(Cl)cc2)CC1` (racemic) [CETIRIZINE] yielded an EC50 (Hepatitis C virus) of over 31.6 µM.
